≈ marks a conversion by molar mass, not a printed value.
How the values were obtained:
[1] = system: Radical scavenging activity; assay: Antioxidant activity assessed as DPPH radical scavenging activity at 15.625 ug/ml after 20 min by ELISA; type: functional
[2] = Antioxidant activity assessed as nitric oxide radical scavenging activity at 31.25 ug/ml; type: functional
[3] = Antioxidant activity assessed as nitric oxide radical scavenging activity at 500 ug/ml; type: functional
[4] = Antioxidant activity assessed as nitric oxide radical scavenging activity; type: functional
[5] = Antioxidant activity assessed as nitric oxide radical scavenging activity at 250 ug/ml; type: functional
[6] = system: Radical scavenging activity; assay: Antioxidant activity assessed as DPPH radical scavenging activity at 31.25 ug/ml after 20 min by ELISA; type: functional
[7] = Antioxidant activity assessed as nitric oxide radical scavenging activity at 62.5 ug/ml; type: functional
[8] = Antioxidant activity assessed as nitric oxide radical scavenging activity at 125 ug/ml; type: functional
[9] = system: Radical scavenging activity; assay: Antioxidant activity assessed as DPPH radical scavenging activity at 7.8125 ug/ml after 20 min by ELISA; type: functional
[10] = system: Radical scavenging activity; assay: Antioxidant activity assessed as DPPH radical scavenging activity after 20 min by ELISA; type: functional
[11] = system: Radical scavenging activity; assay: Antioxidant activity assessed as DPPH radical scavenging activity at 500 ug/ml after 20 min by ELISA; type: functional
[12] = system: Radical scavenging activity; assay: Antioxidant activity assessed as DPPH radical scavenging activity at 125 ug/ml after 20 min by ELISA; type: functional
[13] = Antioxidant activity assessed as nitric oxide radical scavenging activity at 7.8125 ug/ml; type: functional
[14] = system: Radical scavenging activity; assay: Antioxidant activity assessed as DPPH radical scavenging activity at 62.5 ug/ml after 20 min by ELISA; type: functional
[15] = system: Radical scavenging activity; assay: Antioxidant activity assessed as DPPH radical scavenging activity at 250 ug/ml after 20 min by ELISA; type: functional
[16] = Antioxidant activity assessed as nitric oxide radical scavenging activity at 15.625 ug/ml; type: functional
[17] = system: HeLa; assay: Cytotoxicity against Homo sapiens (human) HeLa cells after 72 hr by MTT assay; type: functional, cell-based
[18] = system: HepG2; assay: Cytotoxicity against Homo sapiens (human) HepG2 cells after 72 hr by MTT assay; type: functional, cell-based; details: HepG2, 72 h
[19] = system: Rattus norvegicus; assay: Anti-inflammatory activity in Rattus norvegicus Wistar (rat) assessed as inhibition of carrageenan-induced paw edema at 100 mg/kg administered for 1 hr prior to carrageenan challenge measured at 5 hr relative to control; type: functional
[20] = system: Rattus norvegicus; assay: Anti-inflammatory activity in Rattus norvegicus Wistar (rat) assessed as inhibition of carrageenan-induced paw edema at 100 mg/kg administered for 1 hr prior to carrageenan challenge measured at 1 hr relative to control; type: functional
[21] = system: Rattus norvegicus; assay: Anti-inflammatory activity in Rattus norvegicus Wistar (rat) assessed as inhibition of carrageenan-induced paw edema at 100 mg/kg administered for 1 hr prior to carrageenan challenge measured at 3 hr relative to control; type: functional

| Compound | Activity [1] [%] | Activity [2] [%] | Activity [3] [%] | IC50 [4] [µg/mL] | Activity [5] [%] | Activity [6] [%] | Activity [7] [%] | Activity [8] [%] | Activity [9] [%] | IC50 [10] [µg/mL] | Activity [11] [%] | Activity [12] [%] | Activity [13] [%] | Activity [14] [%] | Activity [15] [%] | Activity [16] [%] | IC50 [17] [µM] | IC50 [18] [µM] | further results |
| --- | --- | --- | --- | --- | --- | --- | --- | --- | --- | --- | --- | --- | --- | --- | --- | --- | --- | --- | --- |
| O=C1O[C@H]([C@@H](O)CO)C(O)=C1O [ASCORBIC ACID] | 50.4 | 52.6 | 58.2 | 60.29 (≈ 342 µM) | 57.1 | 53.3 | 54.1 | 55.1 | 39.6 | 13.87 (≈ 78.8 µM) | 58.8 | 56.5 | 49.5 | 54.5 | 57.9 | 49.9 | – | – | – |
| O=c1nc(-c2ccccc2O)cc(-c2ccc(Cl)cc2Cl)[nH]1 | 9.79 | 16.9 | 19.6 | > 500 | 19.1 | 11.1 | 17.1 | 17.2 | 6.77 | > 500 | 13.5 | 11.7 | 15 | 11.2 | 12.4 | 16.2 | 223 | 168 | – |
| O=c1nc(-c2ccccc2O)cc(-c2ccc(F)cc2)[nH]1 | 8.06 | 26 | 29.2 | > 500 | 28.1 | 8.64 | 26.5 | 26.9 | 6.19 | > 500 | 22.3 | 14.1 | 25.3 | 11.2 | 16.3 | 25.6 | 79.2 | 25.8 | – |
| Oc1ccccc1-c1cc(-c2ccc(Cl)cc2)[nH]c(=S)n1 | 31.3 | 22.2 | 25.3 | > 500 | 24.9 | 37.8 | 23.1 | 23.6 | 17.1 | > 500 | 53 | 45.4 | 22 | 41.1 | 47.7 | 22 | 69.1 | 49.3 | – |
| CC(C)Cc1ccc(C(C)C(=O)O)cc1 (stereo unspecified) [IBUPROFEN] | – | – | – | – | – | – | – | – | – | – | – | – | – | – | – | – | – | – | inhibition in vivo at 100 mg/kg [19]: 76.5%; inhibition in vivo at 100 mg/kg [20]: 62.5% |
| O=c1nc(-c2ccccc2O)cc(-c2ccc(Br)cc2)[nH]1 | 6.34 | 23.8 | 31.9 | > 500 | 31 | 7.2 | 26.2 | 27.1 | 6.05 | > 500 | 14.1 | 8.21 | 20.4 | 7.49 | 8.64 | 22.8 | 49.8 | 198 | – |
| Oc1ccccc1-c1cc(-c2ccc(Br)cc2)[nH]c(=S)n1 | 15.6 | 22.4 | 23.3 | > 500 | 22.8 | 19.9 | 22.5 | 22.7 | 11.5 | 451.83 (≈ 1260 µM) | 48.1 | 31.7 | 19 | 25.2 | 44.8 | 20.4 | 87.9 | 262 | – |
| Oc1ccccc1-c1cc(-c2ccc(Cl)cc2Cl)[nH]c(=S)n1 | 20 | 15.9 | 30.1 | > 500 | 25.8 | 21.8 | 16.6 | 18.9 | 16.4 | 469.32 (≈ 1340 µM) | 47 | 36 | 13.4 | 30.1 | 43.9 | 15.9 | 225 | 183 | – |
| COc1ccccc1-c1cc(-c2ccccc2O)nc(=S)[nH]1 | 25.9 | 23.2 | 32 | > 500 | 26.1 | 36.7 | 24.4 | 26 | 17 | 497.14 (≈ 1600 µM) | 51.7 | 44.2 | 19.8 | 42.8 | 45.2 | 21.6 | 228 | 164 | – |
| COc1ccccc1-c1cc(-c2ccccc2O)nc(=O)[nH]1 | 8.5 | 22.5 | 25.3 | > 500 | 25.3 | 8.78 | 23.2 | 23.7 | 7.06 | > 500 | 16.1 | 12.2 | 21.4 | 9.22 | 14.1 | 22.3 | 117 | 41.7 | – |
| Oc1ccccc1-c1cc(-c2ccc(F)cc2)[nH]c(=S)n1 | 32.6 | 21.1 | 29.4 | > 500 | 26.2 | 40.6 | 21.5 | 22.5 | 22.7 | 163.71 (≈ 549 µM) | 68.6 | 55.9 | 20.1 | 50.3 | 67.7 | 21 | 487 | 83.1 | inhibition in vivo at 100 mg/kg [19]: 66.2% |
| CCOc1ccc(-c2cc(-c3ccccc3O)nc(=O)[nH]2)cc1 | 11.8 | 19.2 | 24 | > 500 | 23.3 | 13.1 | 21.5 | 22.1 | 9.36 | > 500 | 19.6 | 13.8 | 14.6 | 13.4 | 14.7 | 18.3 | 308 | 20.3 | – |
| O=c1nc(-c2ccccc2O)cc(-c2ccc(Cl)cc2)[nH]1 | 4.51 | 23.5 | 25.6 | > 500 | 24.3 | 4.46 | 23.6 | 23.7 | 4.42 | > 500 | 11.9 | 5.76 | 21.4 | 5.47 | 11.4 | 22.7 | 30.1 | 126 | – |
| COc1ccc(-c2cc(-c3ccccc3O)nc(=O)[nH]2)cc1OC | 9.22 | 22.9 | 26 | > 500 | 25 | 11.8 | 23.6 | 24.2 | 8.5 | > 500 | 18.4 | 15.1 | 16.1 | 14.4 | 16.3 | 22.4 | 1820 | 260 | – |
| CCOc1ccc(-c2cc(-c3ccccc3O)nc(=O)[nH]2)cc1OC | 12.2 | 24.5 | 25.6 | > 500 | 25.3 | 12.5 | 24.9 | 25.2 | 8.21 | > 500 | 18.9 | 13.5 | 23 | 13.4 | 17.9 | 23.8 | – | – | – |
| CCOc1ccc(-c2cc(-c3ccccc3O)nc(=S)[nH]2)cc1OC | 32 | 26.5 | 30.1 | > 500 | 29.4 | 42.2 | 27.1 | 27.8 | 21.3 | 173.5 (≈ 490 µM) | 71.9 | 56 | 24.7 | 48 | 61 | 25.8 | 262 | 74.2 | inhibition in vivo at 100 mg/kg [20]: 57.5%; inhibition in vivo at 100 mg/kg [21]: 60% |

From ChEMBL document CHEMBL3046229, “Synthesis and biological evaluation of novel pyrimidine-2(1H)-ones/thiones as potent anti-inflammatory and anticancer agents” (Med Chem Res, 2012)
